From patent US20240398737A1, “FUNCTIONALIZED LONG-CHAIN HYDROCARBON MONO- AND DI-CARBOXYLIC ACIDS AND DERIVATIVES THEREOF, AND THEIR USE FOR THE PREVENTION OR TREATMENT OF DISEASE” (Espervita Therapeutics, Inc., priority 2021, published 2024)

Columns and labels:
DDR2 = DDR2 (Homo sapiens (Human), UniProt Q16832); experiment: Wild type kinase screen: DDR2; format: biochemical; details: compound at 10 μM, 10 μM ATP, Data 1 and Data 2 duplicates
NEK2 = NEK2 (Homo sapiens (Human), UniProt P51955); experiment: Wild type kinase screen: NEK2; format: biochemical; details: compound at 10 μM, 10 μM ATP, Data 1 and Data 2 duplicates
[1] = Single and repeat dose plasma and tissue pharmacokinetics in male C57BL/6 mice; format: in vivo, mouse; details: for Bioavailability in brain compared to liver (fold lower): 20 mg/kg PO, male C57BL/6 mice; for Cmax / Tmax / AUC(0-t): male, C57BL/6, mouse, po
Description: Materials and methods. The study involved two arms: a single dose pharmacokinetic study and a 4-day repeated-dose pharmacokinetic study. For each arm, 56 inbred male C57BL/6 mice, aged at 6-7 week, were included. All animals were purchased from Charles River Lab (CRL, MA). Upon their arrival, they were kept in special-pathogen-free environment all the time. Briefly, they were housed in group on corncob bedding (ScottPharma, MA) in Innovive® caging system (Innovive, CA) on a 12-hour light-dark cycle (0700-1900) at 68-74° F. and 30-70% humidity. They were allowed continually to access water and regular rodent Purina 5001 diet (ScottPharma, MA) ad libitum and to acclimate in the facility for 5 days. Animal handling and procedures were conducted under the protocols and/or guidelines approved by the Institutional Animal Care and Use Committee (IACUC) of […] Biosciences, Inc. […] Also, 2× drug vehicle (3% CMC+0.4% Tween-20) was prepared and stored at 4° C. for a week. On the day of injection, 1 ml frozen 2× aqueous stock solution (20 mg/ml drug solution) aliquot is thawed and mix with another 1 ml 2× drug vehicle (3% Carboxymethyl cellulose+0.4% Tween 20) to prepare 10 mg/ml drug solution. A 25 g mouse would receive 250 μl of 10 mg/ml solution for a dose of 100 mg/kg. Lower concentrations can be achieved by further diluting the 10 mg/ml in 1× vehicle solution with 1× vehicle prepared with milliQ water. On each dosing day, both compound stocks and 2× vehicle were warmed to room temperature and was mixed at 1:1 ratio, given to a concentration of 10 mg/mL. Then 1:5-fold dilutions were obtained with 1× vehicle to 2 mg/mL. Dosing volume at 10 mL/kg (final dosage: 20 mg/kg) in the morning. Route of administration is oral gavage (volume of 10 ml/kg body weight). Study Design. In each group 4 male 6-7-week-old C57BL/6 mice were used. Doses were administered once daily via oral gavage for either a day (single dose arm, QDx1) or 4 consecutive days (repeated dose arm, QDx4) (FIG. 24). Blood, half of brain hemisphere, and one lobe of liver samples were collected from all animals of Day 1 (QDx1 arm) at pre-dose and 0.25, 2, 4, 8, 24 and 36 hours post dose, or Day 4 (QDx4 arm) at pre-dose and 0.25, 2, 4, 8, 24 and 48 hours post dose. Blood samples were collected by cardiac puncture. The blood samples were maintained in wet ice first and centrifuged to obtain plasma (2000×g, 4° C., 5 min). All three samples from each mouse were analyzed for either Compound I-1 or Compound I-32 contents by Integrated Analytical Solutions (Berkeley, CA) and the results were used for the generation of the pharmacokinetic graphs. Sample collection, storage, bioanalysis and statistical analysis. All plasma and tissue samples were analyzed by discovery grade bioanalytical method developed for estimation of each test compound in plasma and tissue samples using LC-MS/MS systems. Plasma samples were prepared as follows. Three volumes of acetonitrile containing internal standard was added to one volume of plasma to precipitate proteins. Samples were centrifuged (3000×g for 10 min) and supernatant removed for analysis by LC-MS/MS. Calibration standards and quality controls were made by preparation of a 1 mg/mL stock solution in MeOH and subsequently a series of working solutions in MeOH:water (1:1, v/v) which were spiked into blank plasma to yield a series of calibration standard samples in the range of 1.0 ng/mL to 10 μg/mL. All incurred PK/PD plasma samples were treated identically to the calibration standards and quality control samples. LC-MS/MS analysis was performed utilizing multiple reaction monitoring for detection of characteristic ions for each drug candidate, additional related analytes and internal standard. Tissue samples were prepared as follows. Three volumes of PBS buffer (pH 7.4) were added to one volume of each tissue sample which was then homogenized to obtain each tissue homogenate sample. […]

[2] = brain, 20 mg/kg, mouse brain, QD × 1, value in parentheses marked * (reanalysis per footnote of Tables 8-9)
[3] = brain, 20 mg/kg, mouse brain, QD × 4, value in parentheses marked * (reanalysis per footnote of Tables 8-9)
[4] = brain, 20 mg/kg/day, mouse brain, 20 mg/kg/day PO, 4 consecutive days (QD × 4)
[5] = brain, 20 mg/kg/day, mouse brain, 20 mg/kg/day PO, single dose (QD × 1)
[6] = liver, 20 mg/kg, mouse liver, QD × 1, value in parentheses: timepoint 0.25 h samples after reanalysis
[7] = liver, 20 mg/kg, mouse liver, QD × 4, value in parentheses: timepoint 0.25 h samples after reanalysis
[8] = liver, 20 mg/kg/day, mouse liver, 20 mg/kg/day PO, 4 consecutive days (QD × 4)
[9] = liver, 20 mg/kg/day, mouse liver, 20 mg/kg/day PO, single dose (QD × 1)
[10] = plasma, 20 mg/kg, mouse plasma, QD × 1, value in parentheses: timepoint 0.25 h samples after reanalysis
[11] = plasma, 20 mg/kg, mouse plasma, QD × 4, value in parentheses: timepoint 0.25 h samples after reanalysis
[12] = plasma, 20 mg/kg/day, mouse plasma, 20 mg/kg/day PO, 4 consecutive days (QD × 4)
[13] = plasma, 20 mg/kg/day, mouse plasma, 20 mg/kg/day PO, single dose (QD × 1)
[14] = mouse brain, 20 mg/kg/day PO, 4 consecutive days (QD × 4)
[15] = mouse brain, 20 mg/kg/day PO, single dose (QD × 1)
[16] = mouse liver, 20 mg/kg/day PO, 4 consecutive days (QD × 4)
[17] = mouse liver, 20 mg/kg/day PO, single dose (QD × 1)

Chain of DDR2 (Q16832 22-855, species assumed): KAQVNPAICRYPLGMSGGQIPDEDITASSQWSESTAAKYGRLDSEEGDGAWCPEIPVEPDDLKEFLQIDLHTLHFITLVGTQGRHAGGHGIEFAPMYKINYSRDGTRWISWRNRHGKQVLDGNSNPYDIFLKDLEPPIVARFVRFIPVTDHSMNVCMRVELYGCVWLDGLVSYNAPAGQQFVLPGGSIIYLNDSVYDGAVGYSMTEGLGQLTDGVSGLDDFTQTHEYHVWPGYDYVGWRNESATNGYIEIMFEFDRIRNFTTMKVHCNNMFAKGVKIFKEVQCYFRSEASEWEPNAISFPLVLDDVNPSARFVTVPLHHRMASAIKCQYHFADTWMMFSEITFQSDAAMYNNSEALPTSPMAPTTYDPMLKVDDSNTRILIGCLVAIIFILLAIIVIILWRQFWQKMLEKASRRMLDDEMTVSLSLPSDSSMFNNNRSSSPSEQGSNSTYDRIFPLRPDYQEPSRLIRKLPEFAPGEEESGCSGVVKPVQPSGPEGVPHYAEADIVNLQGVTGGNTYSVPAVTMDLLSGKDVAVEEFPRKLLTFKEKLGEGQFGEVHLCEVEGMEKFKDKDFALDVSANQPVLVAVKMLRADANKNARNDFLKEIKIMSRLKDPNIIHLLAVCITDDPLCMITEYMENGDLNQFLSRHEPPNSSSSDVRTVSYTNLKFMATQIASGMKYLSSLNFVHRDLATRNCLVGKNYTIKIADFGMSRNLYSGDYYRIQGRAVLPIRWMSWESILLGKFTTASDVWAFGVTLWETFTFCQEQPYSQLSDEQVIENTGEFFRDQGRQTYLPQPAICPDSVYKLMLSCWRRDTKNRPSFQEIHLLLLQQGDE
Chain of NEK2 (P51955 whole entry, species assumed): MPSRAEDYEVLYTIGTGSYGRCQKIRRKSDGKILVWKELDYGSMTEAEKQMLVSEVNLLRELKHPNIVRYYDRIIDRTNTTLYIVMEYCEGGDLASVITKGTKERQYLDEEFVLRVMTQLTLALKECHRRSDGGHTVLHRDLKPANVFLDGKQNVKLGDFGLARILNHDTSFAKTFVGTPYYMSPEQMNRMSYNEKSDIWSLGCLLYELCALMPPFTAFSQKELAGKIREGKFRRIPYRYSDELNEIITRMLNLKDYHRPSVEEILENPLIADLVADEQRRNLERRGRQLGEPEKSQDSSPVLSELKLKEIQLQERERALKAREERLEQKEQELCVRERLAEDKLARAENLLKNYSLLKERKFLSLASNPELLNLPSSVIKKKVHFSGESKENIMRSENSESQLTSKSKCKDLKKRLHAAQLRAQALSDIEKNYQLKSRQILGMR

In the case of CC(C)(CCCCc1ccc(CCCCC(C)(C)C(=O)O)cc1)C(=O)O [Compound I-1, 6-[4-(5-carboxy-5-methylhexyl)-phenyl]-2,2-dimethylhexanoic acid], the “% Enzyme Activity (relative to DMSO controls)” value (DDR2) was 69.84%, the “% Enzyme Activity (relative to DMSO controls)” value (NEK2) was 85.17% and the “Bioavailability in brain compared to liver (fold lower)” value [1] was 300-400 fold. It also gave a Cmax [1, 2] of 1020 ng/g, a Tmax [1, 2] of 15 min and a Cmax [1, 3] of 1390 ng/g. For the same compound, the Tmax [1, 3] was 15 min, the Cmax [1, 4] was 168 ng/g and the Tmax [1, 4] was 240 min. For the same compound, the Cmax [1, 5] was 492 ng/g, the Tmax [1, 5] was 120 min and the Cmax [1, 6] was 21500 ng/g. The Tmax [1, 6] was 15 min, the Cmax [1, 7] was 46600 ng/g and the Tmax [1, 7] was 15 min. The Cmax [1, 8] was 30900 ng/g, the Tmax [1, 8] was 15 min and the Cmax [1, 9] was 27000 ng/g. It also gave a Tmax [1, 9] of 15 min, an AUC(0-t) [1, 10] of 1670 µg·h/mL and a Cmax [1, 10] of 90 µg/mL. It also gave a Tmax [1, 10] of 15 min, an AUC(0-t) [1, 11] of 1090 µg·h/mL and a Cmax [1, 11] of 76.1 µg/mL. For the same compound, the Tmax [1, 11] was 15 min, the AUC(0-t) [1, 12] was 1170 µg·h/mL and the Cmax [1, 12] was 102 µg/mL. It also gave a Tmax [1, 12] of 15 min, an AUC(0-t) [1, 13] of 1380 µg·h/mL and a Cmax [1, 13] of 102 µg/mL. The Tmax [1, 13] was 15 min, the “AUC0-t (h*ng/g)” value [1, 14] was 1,220 h*ng/g and the “AUC0-t (h*ng/g)” value [1, 15] was 1,183 h*ng/g. The “AUC0-t (h*ng/g)” value ([1]; mouse brain, QD × 1, value in parentheses marked * (reanalysis per footnote of Tables 8-9)) was “(2,091)* h*ng/g”, the “AUC0-t (h*ng/g)” value ([1]; mouse brain, QD × 4, value in parentheses marked * (reanalysis per footnote of Tables 8-9)) was “(3,995)* h*ng/g” and the “AUC0-t (h*ng/g)” value [1, 16] was 687,414 h*ng/g. The “AUC0-t (h*ng/g)” value [1, 17] was 425,184 h*ng/g, the “AUC0-t (h*ng/g)” value ([1]; mouse liver, QD × 1, value in parentheses: timepoint 0.25 h samples after reanalysis) was “(469,726)* h*ng/g” and the “AUC0-t (h*ng/g)” value ([1]; mouse liver, QD × 4, value in parentheses: timepoint 0.25 h samples after reanalysis) was “(718,455)* h*ng/g”.
In the case of CC(C)(CCCCc1cccc(CCCCC(C)(C)C(=O)O)c1)C(=O)O [Compound I-32, 6-[3-(5-carboxy-5-methylhexyl)-phenyl]-2,2-dimethylhexanoic acid], the “% Enzyme Activity (relative to DMSO controls)” value (DDR2) was 85.83%, the “% Enzyme Activity (relative to DMSO controls)” value (NEK2) was 87.7% and the “Bioavailability in brain compared to liver (fold lower)” value [1] was 300-400 fold. For the same compound, the Cmax [1, 4] was 604 ng/g, the Tmax [1, 4] was 240 min and the Cmax [1, 5] was 362 ng/g. The Tmax [1, 5] was 120 min, the Cmax [1, 8] was 43000 ng/g and the Tmax [1, 8] was 240 min. The Cmax [1, 9] was 25100 ng/g, the Tmax [1, 9] was 120 min and the AUC(0-t) [1, 12] was 758 µg·h/mL. The Cmax [1, 12] was 76.5 µg/mL, the Tmax [1, 12] was 240 min and the AUC(0-t) [1, 13] was 240 µg·h/mL. The Cmax [1, 13] was 50.2 µg/mL, the Tmax [1, 13] was 120 min and the “AUC0-t (h*ng/g)” value [1, 14] was 6,304 h*ng/g. For the same compound, the “AUC0-t (h*ng/g)” value [1, 15] was 1,527 h*ng/g, the “AUC0-t (h*ng/g)” value [1, 16] was 100,6991 h*ng/g and the “AUC0-t (h*ng/g)” value [1, 17] was 405,934 h*ng/g.
